ChEMBL document CHEMBL4265937, “Branched pentapeptides as potent inhibitors of the vascular endothelial growth factor 165 binding to Neuropilin-1: Design, synthesis and biological activity” (Eur J Med Chem, 2018)
Non-standard residues stand in square brackets, D forms with d. Residues, ends and D or L forms follow the SMILES beside them. *: point of attachment. X1 = N=C(N)NCCCCCCCCCCC(=O)*; X2 = N=C(N)NCCCCCCC(=O)*; Dab = NCC[C@H](N)C(=O)O

Tests used:
[1] = biological target: Neuropilin-1 (Rattus norvegicus) (UniProt Q9QWJ9); test: Inhibition of biotinylated VEGF-A165 binding to rat NRP1/FC chimera at 1 uM after 40 mins by ELISA relative to control
[2] = biological target: Neuropilin-1 (Rattus norvegicus) (UniProt Q9QWJ9); test: Inhibition of biotinylated VEGF-A165 binding to rat NRP1/FC chimera at 0.3 uM after 40 mins by ELISA relative to control
[3] = biological target: Neuropilin-1 (Homo sapiens, UniProt O14786); test: Inhibition of biotinylated VEGF165 binding to NRP1 (unknown origin) by ELISA
Sequence of Neuropilin-1 (Homo sapiens, UniProt O14786) (O14786 whole entry): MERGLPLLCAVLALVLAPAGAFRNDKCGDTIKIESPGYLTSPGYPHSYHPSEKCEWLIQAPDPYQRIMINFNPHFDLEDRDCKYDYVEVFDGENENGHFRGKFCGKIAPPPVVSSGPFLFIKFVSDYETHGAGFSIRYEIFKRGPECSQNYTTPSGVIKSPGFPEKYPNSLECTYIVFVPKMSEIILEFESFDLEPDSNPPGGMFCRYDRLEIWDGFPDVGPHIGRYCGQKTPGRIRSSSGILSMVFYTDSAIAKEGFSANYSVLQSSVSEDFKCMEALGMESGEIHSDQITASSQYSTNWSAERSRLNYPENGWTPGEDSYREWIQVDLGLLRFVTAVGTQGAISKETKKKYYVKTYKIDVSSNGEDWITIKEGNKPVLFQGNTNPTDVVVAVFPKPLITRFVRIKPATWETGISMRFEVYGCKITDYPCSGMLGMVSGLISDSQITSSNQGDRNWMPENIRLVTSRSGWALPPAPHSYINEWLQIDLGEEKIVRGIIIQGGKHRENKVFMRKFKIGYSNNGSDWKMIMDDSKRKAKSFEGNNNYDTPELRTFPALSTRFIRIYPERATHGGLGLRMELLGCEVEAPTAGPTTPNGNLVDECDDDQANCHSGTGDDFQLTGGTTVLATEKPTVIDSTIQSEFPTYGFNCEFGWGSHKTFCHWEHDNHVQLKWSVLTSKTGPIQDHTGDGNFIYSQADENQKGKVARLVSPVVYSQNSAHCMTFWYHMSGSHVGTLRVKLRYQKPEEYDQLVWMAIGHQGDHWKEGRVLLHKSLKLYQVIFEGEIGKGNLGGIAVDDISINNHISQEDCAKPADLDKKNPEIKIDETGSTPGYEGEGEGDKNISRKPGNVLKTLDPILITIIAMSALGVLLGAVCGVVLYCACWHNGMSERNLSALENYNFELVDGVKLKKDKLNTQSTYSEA

[4] = biological target: Neuropilin-1 (Rattus norvegicus, UniProt Q9QWJ9); test: Inhibition of biotinylated VEGF-A165 binding to rat NRP1/FC chimera after 40 mins by ELISA
[5] = Half life in human plasma at 0.9 umol/ml by LC-MS analysis; format: ADME, cell-free
[6] = biological target: Neuropilin-1 (Rattus norvegicus) (UniProt Q9QWJ9); test: Inhibition of biotinylated VEGF-A165 binding to rat NRP1/FC chimera at 10 uM after 40 mins by ELISA relative to control

N=C(N)NCCCCCCCCCCC(=O)NCCCC[C@H](N)C(=O)N1CCC[C@H]1C(=O)N[C@@H](CCN)C(=O)N[C@@H](CCCNC(=N)N)C(=O)O (H-K(X1)P[Dab]R-OH)
inhibition [1]: 35.5% | inhibition [2]: 12.1%

N=C(N)NCCCCCCC(=O)NCCCC[C@H](N)C(=O)N1CCC[C@H]1C(=O)N[C@@H](CCN)C(=O)N[C@@H](CCCNC(=N)N)C(=O)O (H-K(X2)P[Dab]R-OH)
inhibition [1]: 44.7% | inhibition [2]: 25.5%

N=C(N)NCCC[C@H](NC(=O)[C@@H]1CCCN1C(=O)[C@@H]1CCCN1C(=O)[C@@H](N)CCCCN)C(=O)O (H-KPPR-OH)
IC50 [3]: 4600 nM | inhibition [1]: 15.4% | inhibition [2]: 10.1%

C[C@H](NC(=O)[C@H](C)NC(=O)[C@@H](N)CCCCNC(=O)C(N)CCCCN=C(N)N)C(=O)N[C@@H](CCCNC(=N)N)C(=O)O (stereo partly drawn) (HELM PEPTIDE1{K.A.A.R}|PEPTIDE2{[N=C(N)NCCCCC(N)C(=O)[*:2]]}$PEPTIDE1,PEPTIDE2,1:R3-1:R2$$$V2.0)
inhibition [1]: 48.9% | inhibition [2]: 16.9%

C[C@H](NC(=O)[C@@H](N)CCCCNC(=O)C(N)CCCCN=C(N)N)C(=O)N1CCC[C@H]1C(=O)N[C@@H](CCCNC(=N)N)C(=O)O (stereo partly drawn) (HELM PEPTIDE1{K.A.P.R}|PEPTIDE2{[N=C(N)NCCCCC(N)C(=O)[*:2]]}$PEPTIDE1,PEPTIDE2,1:R3-1:R2$$$V2.0)
inhibition [1]: 20% | inhibition [2]: 3.9%

C[C@H](NC(=O)[C@H](CCCCN)NC(=O)[C@@H](N)CCCCNC(=O)C(N)CCCCN=C(N)N)C(=O)N[C@@H](CCCNC(=N)N)C(=O)O (stereo partly drawn) (HELM PEPTIDE1{K.K.A.R}|PEPTIDE2{[N=C(N)NCCCCC(N)C(=O)[*:2]]}$PEPTIDE1,PEPTIDE2,1:R3-1:R2$$$V2.0)
inhibition [1]: 22.2%

N=C(N)NCCC[C@H](NC(=O)[C@@H]1CCCN1C(=O)[C@H](CCCCN)NC(=O)[C@@H](N)CCCCNC(=O)C(N)CCCCN=C(N)N)C(=O)O (stereo partly drawn) (HELM PEPTIDE1{K.K.P.R}|PEPTIDE2{[N=C(N)NCCCCC(N)C(=O)[*:2]]}$PEPTIDE1,PEPTIDE2,1:R3-1:R2$$$V2.0)
inhibition [1]: 22.1%

C[C@H](NC(=O)[C@@H]1CCCN1C(=O)[C@@H](N)CCCCNC(=O)C(N)CCCCN=C(N)N)C(=O)N[C@@H](CCCNC(=N)N)C(=O)O (stereo partly drawn) (HELM PEPTIDE1{K.P.A.R}|PEPTIDE2{[N=C(N)NCCCCC(N)C(=O)[*:2]]}$PEPTIDE1,PEPTIDE2,1:R3-1:R2$$$V2.0)
inhibition [1]: 77.5% | inhibition [2]: 54.2% | IC50 ([4]; read-out: IC50): 300 nM | half-life at 900 µM [5]: 0.65 h

N=C(N)NCCC[C@H](NC(=O)[C@H](CCCCN)NC(=O)[C@@H]1CCCN1C(=O)[C@@H](N)CCCCNC(=O)C(N)CCCCN=C(N)N)C(=O)O (stereo partly drawn) (HELM PEPTIDE1{K.P.K.R}|PEPTIDE2{[N=C(N)NCCCCC(N)C(=O)[*:2]]}$PEPTIDE1,PEPTIDE2,1:R3-1:R2$$$V2.0)
inhibition [1]: 22.4% | inhibition [2]: 20.6%

N=C(N)NCCC[C@H](NC(=O)[C@@H]1CCCN1C(=O)[C@@H]1CCCN1C(=O)[C@@H](N)CCCCNC(=O)C(N)CCCCN=C(N)N)C(=O)O (stereo partly drawn) (HELM PEPTIDE1{K.P.P.R}|PEPTIDE2{[N=C(N)NCCCCC(N)C(=O)[*:2]]}$PEPTIDE1,PEPTIDE2,1:R3-1:R2$$$V2.0)
inhibition [1]: 41.4% | inhibition [2]: 4.7% | IC50 ([4]; read-out: IC50): 1000 nM

N=C(N)NCCC[C@H](NC(=O)[C@@H]1CCCN1C(=O)[C@@H](N)CCCCNC(=O)C(N)CCCCN=C(N)N)C(=O)O (stereo partly drawn) (HELM PEPTIDE1{K.P.R}|PEPTIDE2{[N=C(N)NCCCCC(N)C(=O)[*:2]]}$PEPTIDE1,PEPTIDE2,1:R3-1:R2$$$V2.0)
inhibition [6]: 47.8%

N=C(N)NCCC[C@H](NC(=O)[C@H](CCN)NC(=O)[C@@H]1CCCN1C(=O)[C@@H](N)CCCCNC(=O)C(N)CCNC(=N)N)C(=O)O (stereo partly drawn) (HELM PEPTIDE1{K.P.[Dab].R}|PEPTIDE2{[N=C(N)NCCC(N)C(=O)[*:2]]}$PEPTIDE1,PEPTIDE2,1:R3-1:R2$$$V2.0)
inhibition [1]: 28% | inhibition [2]: 5.7%

N=C(N)NCCCC(N)C(=O)NCCCC[C@H](N)C(=O)N1CCC[C@H]1C(=O)N[C@@H](CCN)C(=O)N[C@@H](CCCNC(=N)N)C(=O)O (stereo partly drawn) (HELM PEPTIDE1{K.P.[Dab].R}|PEPTIDE2{[N=C(N)NCCCC(N)C(=O)[*:2]]}$PEPTIDE1,PEPTIDE2,1:R3-1:R2$$$V2.0)
inhibition [1]: 39.9% | inhibition [2]: 8%

N=C(N)NCCC[C@H](NC(=O)[C@H](CCN)NC(=O)[C@@H]1CCCN1C(=O)[C@@H](N)CCCCNC(=O)C(N)CCCCN=C(N)N)C(=O)O (stereo partly drawn) (HELM PEPTIDE1{K.P.[Dab].R}|PEPTIDE2{[N=C(N)NCCCCC(N)C(=O)[*:2]]}$PEPTIDE1,PEPTIDE2,1:R3-1:R2$$$V2.0)
inhibition [1]: 82.6% | inhibition [2]: 62.2% | IC50 ([4]; read-out: IC50): 200 nM | IC50 ([4]; read-out: pIC50 (converted)): 240 nM | half-life at 900 µM [5]: 0.733 h

N=C(N)NCCC[C@H](NC(=O)[C@H](CN)NC(=O)[C@@H]1CCCN1C(=O)[C@@H](N)CCCCNC(=O)C(N)CCCCN=C(N)N)C(=O)O (stereo partly drawn) (HELM PEPTIDE1{K.P.[NC[C@H](N[*:1])C(=O)[*:2]].R}|PEPTIDE2{[N=C(N)NCCCCC(N)C(=O)[*:2]]}$PEPTIDE1,PEPTIDE2,1:R3-1:R2$$$V2.0)
inhibition [1]: 23.6% | inhibition [2]: 18.4%

N=C(N)NCCC[C@H](NC(=O)[C@H](CCCN)NC(=O)[C@@H]1CCCN1C(=O)[C@@H](N)CCCCNC(=O)C(N)CCCCN=C(N)N)C(=O)O (stereo partly drawn) (HELM PEPTIDE1{K.P.[Orn].R}|PEPTIDE2{[N=C(N)NCCCCC(N)C(=O)[*:2]]}$PEPTIDE1,PEPTIDE2,1:R3-1:R2$$$V2.0)
inhibition [1]: 17.8% | inhibition [2]: 11.1%

C[C@H](NC(=O)[C@H](CCN)NC(=O)[C@@H](N)CCCCNC(=O)C(N)CCCCN=C(N)N)C(=O)N[C@@H](CCCNC(=N)N)C(=O)O (stereo partly drawn) (HELM PEPTIDE1{K.[Dab].A.R}|PEPTIDE2{[N=C(N)NCCCCC(N)C(=O)[*:2]]}$PEPTIDE1,PEPTIDE2,1:R3-1:R2$$$V2.0)
inhibition [1]: 47.3% | inhibition [2]: 16.1%

N=C(N)NCCC[C@H](NC(=O)[C@@H]1CCCN1C(=O)[C@H](CCN)NC(=O)[C@@H](N)CCCCNC(=O)C(N)CCCCN=C(N)N)C(=O)O (stereo partly drawn) (HELM PEPTIDE1{K.[Dab].P.R}|PEPTIDE2{[N=C(N)NCCCCC(N)C(=O)[*:2]]}$PEPTIDE1,PEPTIDE2,1:R3-1:R2$$$V2.0)
inhibition [1]: 83.7% | inhibition [2]: 59.6% | IC50 ([4]; read-out: IC50): 200 nM | half-life at 900 µM [5]: 41 h

C[C@H](NC(=O)[C@H](CN)NC(=O)[C@@H](N)CCCCNC(=O)C(N)CCCCN=C(N)N)C(=O)N[C@@H](CCCNC(=N)N)C(=O)O (stereo partly drawn) (HELM PEPTIDE1{K.[NC[C@H](N[*:1])C(=O)[*:2]].A.R}|PEPTIDE2{[N=C(N)NCCCCC(N)C(=O)[*:2]]}$PEPTIDE1,PEPTIDE2,1:R3-1:R2$$$V2.0)
inhibition [1]: 25% | inhibition [2]: 14.1%

N=C(N)NCCC[C@H](NC(=O)[C@@H]1CCCN1C(=O)[C@H](CN)NC(=O)[C@@H](N)CCCCNC(=O)C(N)CCCCN=C(N)N)C(=O)O (stereo partly drawn) (HELM PEPTIDE1{K.[NC[C@H](N[*:1])C(=O)[*:2]].P.R}|PEPTIDE2{[N=C(N)NCCCCC(N)C(=O)[*:2]]}$PEPTIDE1,PEPTIDE2,1:R3-1:R2$$$V2.0)
inhibition [1]: 82% | inhibition [2]: 59.4% | IC50 ([4]; read-out: IC50): 200 nM | half-life at 900 µM [5]: 34 h

C[C@H](NC(=O)[C@H](CCCN)NC(=O)[C@@H](N)CCCCNC(=O)C(N)CCCCN=C(N)N)C(=O)N[C@@H](CCCNC(=N)N)C(=O)O (stereo partly drawn) (HELM PEPTIDE1{K.[Orn].A.R}|PEPTIDE2{[N=C(N)NCCCCC(N)C(=O)[*:2]]}$PEPTIDE1,PEPTIDE2,1:R3-1:R2$$$V2.0)
inhibition [1]: 15.6%

N=C(N)NCCC[C@H](NC(=O)[C@@H]1CCCN1C(=O)[C@H](CCCN)NC(=O)[C@@H](N)CCCCNC(=O)C(N)CCCCN=C(N)N)C(=O)O (stereo partly drawn) (HELM PEPTIDE1{K.[Orn].P.R}|PEPTIDE2{[N=C(N)NCCCCC(N)C(=O)[*:2]]}$PEPTIDE1,PEPTIDE2,1:R3-1:R2$$$V2.0)
inhibition [1]: 38% | inhibition [2]: 10.4%

N=C(N)NCCC[C@H](NC(=O)[C@H](CCN)NC(=O)[C@@H]1CCCN1C(=O)[C@@H](N)CCNC(=O)C(N)CCCCN=C(N)N)C(=O)O (stereo partly drawn) (HELM PEPTIDE1{[Dab].P.[Dab].R}|PEPTIDE2{[N=C(N)NCCCCC(N)C(=O)[*:2]]}$PEPTIDE1,PEPTIDE2,1:R3-1:R2$$$V2.0)
inhibition [1]: 41.4% | inhibition [2]: 5.7%

N=C(N)NCCC[C@H](NC(=O)[C@@H]1CCCN1C(=O)C(CCN)NC(=O)[C@@H](N)CCCCN=C(N)N)C(=O)O (stereo partly drawn) (HELM PEPTIDE1{[N=C(N)NCCCC[C@H](N)C(=O)[*:2]].[NCCC(N[*:1])C(=O)[*:2]].P.R}$$$$V2.0)
IC50 [3]: 800 nM

N=C(N)NCCCC(N)C(=O)NCCC[C@H](N)C(=O)N1CCC[C@H]1C(=O)N[C@@H](CCN)C(=O)N[C@@H](CCCNC(=N)N)C(=O)O (stereo partly drawn) (HELM PEPTIDE1{[Orn].P.[Dab].R}|PEPTIDE2{[N=C(N)NCCCC(N)C(=O)[*:2]]}$PEPTIDE1,PEPTIDE2,1:R3-1:R2$$$V2.0)
inhibition [1]: 40.3% | inhibition [2]: 2.8%

N=C(N)NCCC[C@H](NC(=O)[C@H](CCN)NC(=O)[C@@H]1CCCN1C(=O)[C@@H](N)CCCNC(=O)C(N)CCCCN=C(N)N)C(=O)O (stereo partly drawn) (HELM PEPTIDE1{[Orn].P.[Dab].R}|PEPTIDE2{[N=C(N)NCCCCC(N)C(=O)[*:2]]}$PEPTIDE1,PEPTIDE2,1:R3-1:R2$$$V2.0)
inhibition [1]: 36.3% | inhibition [2]: 17%
